Measured values reported in ChEMBL document CHEMBL1124277, “Leukotriene receptor antagonists. 4. Synthesis and leukotriene D4/E4 receptor antagonist activity of 4-(alkyl)acetophenone derivatives” (J Med Chem, 1988).

Columns and labels:
[1] = molecular target: T1, Cysteinyl leukotriene receptor 1 (Cavia porcellus) (UniProt Q2NNR5); assay: Dissociation constant for leukotriene antagonist (compound) on Cysteinyl leukotriene D4 receptor in guinea pig ileum was determined; assay type: functional, tissue-based
T1 sequence (whole entry): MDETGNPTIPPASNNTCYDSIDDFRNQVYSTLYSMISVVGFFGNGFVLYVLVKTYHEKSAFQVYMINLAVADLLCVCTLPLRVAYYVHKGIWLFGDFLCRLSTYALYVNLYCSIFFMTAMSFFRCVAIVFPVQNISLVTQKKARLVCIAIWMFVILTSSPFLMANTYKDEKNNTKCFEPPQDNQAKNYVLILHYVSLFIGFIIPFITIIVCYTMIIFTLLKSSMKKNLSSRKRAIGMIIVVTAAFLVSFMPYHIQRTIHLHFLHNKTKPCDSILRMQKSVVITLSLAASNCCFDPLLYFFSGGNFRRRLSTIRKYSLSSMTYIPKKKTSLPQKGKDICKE

[2] = molecular target: T1, Cysteinyl leukotriene receptor 1 (Cavia porcellus); assay: Dissociation constant for leukotriene antagonist (compound) on LTE4 receptor in guinea pig ileum was determined; assay type: functional, tissue-based

pKB [1] | pKB [2] | Compound
6.25 | 6.67 | CCCc1c(CCCCc2nnn[nH]2)ccc(C(C)=O)c1O
6.93 | 7.21 | CCCc1c(OCCCCc2nnn[nH]2)ccc(C(C)=O)c1O
5.47 | 5.64 | CCCc1c(OCCCc2nnn[nH]2)ccc(C(C)=O)c1O
7.08 | 7.5 | CCCc1c(CCCCCc2nnn[nH]2)ccc(C(C)=O)c1O
